# In patent publication US20120214846A1, “HEXAHYDROCYCLOPENTYL[F]INDAZOLE PYRIDYL ETHANOLS AND DERIVATIVES THEREOF AS SELECTIVE GLUCOCORTICOID RECEPTOR MODULATORS” (MERCK SHARP & DOHME CORP, priority 2009, published 2012):
# Target: T1, GR (Homo sapiens, UniProt P04150)
# T1 sequence (P04150 1-777): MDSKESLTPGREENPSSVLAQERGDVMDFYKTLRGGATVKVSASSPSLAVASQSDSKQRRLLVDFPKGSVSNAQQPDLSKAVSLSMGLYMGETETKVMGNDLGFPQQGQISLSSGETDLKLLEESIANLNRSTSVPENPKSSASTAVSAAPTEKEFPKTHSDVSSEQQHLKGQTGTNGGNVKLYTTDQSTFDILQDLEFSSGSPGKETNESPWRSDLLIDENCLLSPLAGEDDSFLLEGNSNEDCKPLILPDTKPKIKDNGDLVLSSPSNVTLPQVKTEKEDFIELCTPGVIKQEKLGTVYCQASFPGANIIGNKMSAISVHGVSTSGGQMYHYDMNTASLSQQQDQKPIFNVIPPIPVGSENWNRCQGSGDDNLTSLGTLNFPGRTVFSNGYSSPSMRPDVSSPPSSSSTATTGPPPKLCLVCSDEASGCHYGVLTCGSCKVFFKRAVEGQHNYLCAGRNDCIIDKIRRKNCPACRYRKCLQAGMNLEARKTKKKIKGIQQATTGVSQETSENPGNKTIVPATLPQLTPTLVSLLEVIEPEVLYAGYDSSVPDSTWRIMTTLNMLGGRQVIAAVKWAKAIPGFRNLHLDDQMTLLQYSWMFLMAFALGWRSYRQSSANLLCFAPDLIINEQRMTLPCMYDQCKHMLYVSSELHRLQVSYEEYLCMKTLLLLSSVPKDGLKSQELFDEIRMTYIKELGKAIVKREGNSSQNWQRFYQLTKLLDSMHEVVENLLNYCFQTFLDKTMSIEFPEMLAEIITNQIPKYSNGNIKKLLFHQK
# Test: GR Ligand Binding Assay (GR BIND), HeLa cell lysate, 3H-DEX
# Design: endogenous in cells; host or cells: HeLa (ATCC) cell lysate supernatant
# Settings: HeLa cell lysate, 3H-DEX; read-out: GR BIND Ki
# Method: Binding Buffer: TEGM (10 mM Tris-HCl, 1 mM EDTA, 10% glycerol, 1 mM beta-mecaptoethanol, 10 mM Sodium Molybdate, pH 7.2)
# Phenol red-free Trypsin-EDTA is diluted in the same PBS 1:10. The cell layers are rinsed with 1× Trypsin, extra Trypsin is poured out, and the cell layers are incubated at 37° C. for ˜2 min. The flask is tapped and checked for signs of cell detachment. Once the cells begin to slide off the flask, the complete media is added. The cells are counted at this point, then diluted to the appropriate concentration and split into flasks or dishes for further culturing (Usually 1:3 to 1:6 dilution).
# The cell pellet is washed twice with TEGM (10 mM Tris-HCl, 1 mM EDTA, 10% glycerol, 1 mM beta-mercaptoethanol, 10 mM Sodium Molybdate, pH 7.2). […] The cell suspension is snap frozen in liquid nitrogen or ethanol/dry ice bath and transferred to −80° C. freezer on dry ice. Before setting up the binding assay, the frozen samples are left on ice-water to just thaw (˜1 hr). Then the samples are centrifuged at 12,500 g to 20,000 g for 30 min at 4° C. The supernatant is used to set-up assay right away. If using 50 μL of supernatant, the test compound can be prepared in 50 μL of the TEGM buffer.
# 1×TEGM buffer is prepared, and the isotope-containing assay mixture is prepared in the following order: EtOH (2% final concentration in reaction), 3H-DEX (Amersham Biosciences) and 1×TEGM. [e.g. For 100 samples, 200 μL (100×2) of EtOH+4.25 μL of 1:10 3H-Dex stock+2300 μL (100×23) 1×TEGM]. The compound is serially diluted, e.g., if starting final conc. is 1 μM, and the compound is in 25 μL of solution, for duplicate samples, 75 μL of 4×1 μM solution is made and 3 μL of 100 μM is added to 72 μL of buffer, and 1:5 serial dilution.
# 25 μL of 3H-DEX (6 nM) trace and 25 μl, compound solution are first mixed together, followed by addition of 50 μL receptor solution. The reaction is gently mixed, spun briefly at about 200 rpm and incubated at 4° C. overnight. 100 μL of 50% HAP slurry is prepared and added to the incubated reaction which is then vortexed and incubated on ice for 5 to 10 minutes. The reaction mixture is vortexed twice more to resuspend HAP while incubating reaction. The samples in 96-well format are then washed in wash buffer using The FilterMate™ Universal Harvester plate washer (Packard). The washing process transfers HAP pellet containing ligand-bound expressed receptor to Unifilter-96 GF/B filter plate (Packard). The HAP pellet on the filter plate is incubated with 50 μL of MICROSCINT (Packard) scintillint for 30 minutes before being counted on the TopCount microscintillation counter (Packard). IC50s are calculated using DEX as a reference.
row,Structure (SMILES),Ki
1,"C[C@]12Cc3cnn(-c4ccc(F)cc4)c3C=C1CC[C@@]2(O)CC(O)c1cc(C(F)(F)F)ccn1 (single isomer, unassigned) [Example 5b]",4.3 nM
2,"C[C@]12Cc3cnn(-c4ccc(F)cc4)c3C=C1CC[C@@]2(O)CC(O)c1cc(Br)ccn1 (single isomer, unassigned) [Example 10a]",3.4 nM
3,"C[C@]12Cc3cnn(-c4ccc(F)cc4)c3C=C1CC[C@@]2(O)CC(O)c1cc(C(F)(F)F)ccn1 (single isomer, unassigned) [Example 5a]",2.6 nM
4,"C[C@]12Cc3cnn(-c4ccc(F)cc4)c3C=C1CC[C@@]2(O)CC(O)c1cc(Cl)ccn1 (single isomer, unassigned) [Example 8b]",2.1 nM
5,"C[C@]12Cc3cnn(-c4ccc(F)cc4)c3C=C1CC[C@@]2(O)CC(O)c1cc(Br)ccn1 (single isomer, unassigned) [Example 10b]",1.7 nM
6,"COc1ccnc(C(O)C[C@]2(O)CCC3=Cc4c(cnn4-c4ccc(F)cc4)C[C@@]32C)c1 (stereo partly drawn) [Example 3, (4αS,5R)-1-(4-fluorophenyl)-5-[2-hydroxy-2-(4-methoxypyridin-2-yl)ethyl]-4α-methyl-1,4,4α,5,6,7-hexahydrocyclopenta[f]indazol-5-ol]",4.4 nM
7,"C[C@]12Cc3cnn(-c4ccc(F)cc4)c3C=C1CC[C@@]2(O)CC(O)c1ccc(F)cn1 (single isomer, unassigned) [Example 7a]",10.8 nM
8,"C[C@]12Cc3cnn(-c4ccc(F)cc4)c3C=C1CC[C@@]2(O)CC(O)c1ncccc1F (stereo partly drawn) [Example 4, (4αS,5R)-1-(4-fluorophenyl)-5-[2-(3-fluoropyridin-2-yl)-2-hydroxyethyl]-4α-methyl-1,4,4α,5,6,7-hexahydrocyclopenta[f]indazol-5-ol]",7.2 nM
9,"C[C@]12Cc3cnn(-c4ccc(F)cc4)c3C=C1CC[C@@]2(O)CC(O)c1ccc(F)cn1 (single isomer, unassigned) [Example 7b]",4.8 nM
10,"C[C@]12Cc3cnn(-c4ccc(F)cc4)c3C=C1CC[C@@]2(O)CC(O)c1ccccn1 (single isomer, unassigned) [Example 2a]",11.7 nM
11,"C[C@]12Cc3cnn(-c4ccc(F)cc4)c3C=C1CC[C@@]2(O)CC(O)c1cc(Cl)ccn1 (single isomer, unassigned) [Example 8a]",5 nM
12,"C[C@]12Cc3cnn(-c4ccc(F)cc4)c3C=C1CC[C@@]2(O)CC(O)c1cc(C#N)ccn1 (stereo partly drawn) [Example 9, 2-{2-[(4αS,5R)-1-(4-fluorophenyl)-5-hydroxy-4α-methyl-1,4,4α,5,6,7-hexahydrocyclopenta[f]indazol-5-yl]-1-hydroxyethyl}pyridine-4-carbonitrile]",2.1 nM
13,"Cc1ccnc(C(O)C[C@]2(O)CCC3=Cc4c(cnn4-c4ccc(F)cc4)C[C@@]32C)c1 (stereo partly drawn) [Example 11, (4αS,5R)-1-(4-fluorophenyl)-5-[2-hydroxy-2-(4-methylpyridin-2-yl)ethyl]-4α-methyl-1,4,4α,5,6,7-hexahydrocyclopenta[f]indazol-5-ol]",3.9 nM
14,"C[C@]12Cc3cnn(-c4ccc(F)cc4)c3C=C1CC[C@@]2(O)CC(O)c1ccc(C(F)(F)F)cn1 (stereo partly drawn) [Example 6, (4αS,5R)-1-(4-fluorophenyl)-5-{2-hydroxy-2-[5-(trifluoromethyl)pyridin-2-yl]ethyl}-4α-methyl-1,4,4α,5,6,7-hexahydrocyclopenta[f]indazol-5-ol]",2.7 nM
15,"C[C@]12Cc3cnn(-c4ccc(F)cc4)c3C=C1CC[C@@]2(O)CC(O)c1ccccn1 (single isomer, unassigned) [Example 2b]",6.4 nM
16,"Cc1cccnc1C(O)C[C@]1(O)CCC2=Cc3c(cnn3-c3ccc(F)cc3)C[C@@]21C (single isomer, unassigned) [Example 1b]",3.9 nM
17,"Cc1cccnc1C(O)C[C@]1(O)CCC2=Cc3c(cnn3-c3ccc(F)cc3)C[C@@]21C (single isomer, unassigned) [Example 1a]",6.7 nM

# Same assay, conditions: Table 4, literature compounds; read-out: GR BIND
row,Structure (SMILES),Ki
1,"C[C@]12Cc3cnn(-c4ccc(F)cc4)c3C=C1CCC[C@@H]2[C@@H](O)c1ccccc1 [Ex. 35 WO 03/86294 A2, reference compound]",1.17 nM
2,"C[C@]12Cc3cnn(-c4ccc(F)cc4)c3C=C1CCC[C@@H]2[C@@H](O)Cc1ccccc1 [Ex. 22 WO 03/086294 A2, reference compound]",1.26 nM
3,"CO[C@@]1(CCc2ccccc2Cl)CCC2=Cc3c(cnn3-c3ccc(F)cc3)C[C@@]21C [Ex. 103 WO 04/075840 A2, reference compound]",0.23 nM
4,"C[C@]12Cc3cnn(-c4ccc(F)cc4)c3C=C1CC[C@@]2(O)C#Cc1ccccc1 [Ex. 1 WO 04/075840 A2, reference compound]",1.18 nM
5,"C[C@]12Cc3cnn(-c4ccc(F)cc4)c3C=C1CCC[C@@H]2[C@@H](O)CCc1ccccc1 [Ex. 30 WO 03/086294 A2, reference compound]",1.21 nM
